Patent US5610160A, “Topical 5-fluorouracil prodrug composition and method” (priority 1994, dated 1997)
≈ marks a conversion by molar mass, not a printed value. Where two headings read alike, the source gives them in different places.

Assays:
[1] = shake-flask, brief shaking, IPM phase analyzed immediately; settings: 23 ± 1 °C
[2] = Partition coefficient between IPM and pH 4.0 acetate buffer; assay type: physicochemical; settings: 23 ± 1° C.
Text: ^a Partition coefficient between IPM and pH 4.0 acetate buffer at 23

[3] = Diffusion cell experiments: delivery of 5-FU through hairless mouse skin; assay type: in vitro ADME; settings: for Ji, flux of 5-FU through the skin: from suspensions of prodrugs in IPM, hairless mouse skin; for Cs, amount of 5-FU in the skin: leached from hairless mouse skin in 24 hours subsequent to application of prodrug in vehicle for 48 hours; for Jj, flux of theophylline through the skin after application of the prodrug/formulation (relative damage): theophylline from suspension in PG
Experimental: The diffusion cell experiments were conducted as described by Sloan et al in J. Invest.
^b Flux in mg/cm^2 hour of 5FU from suspensions of prodrugs in
^c Amount of 5FU in mg leached from hairless mouse skin in 24 hours
subsequent to application of prodrug in vehicle for 48 hours.
^d Flux in mg/cm^2 hour of theophylline from suspension in PG.

[4] = Solubility of prodrug in isopropyl myristate (IPM); settings: for solubility: isopropyl myristate, organic solvent or mixture; for CIPM, equivalent mg of 5FU/ml: IPM, 23 ± 1° C., value in parentheses
Experimental: The results from the determination of the physicochemical properties are recorded in the tables as CIPM (the saturated solubility of the prodrug in the isopropyl myristate (IPM) vehicle/formulation in which the prodrug was applied to the mouse skins), K (the partition coefficients of the prodrug between IPM and a pH 4.0 acetate buffer) and Cw (the solubility of the prodrug in pH 4.0 acetate buffer calculated from the partition coefficient and the IPM solubility).

[5] = 37° C., 0.05 M phosphate buffer pH 7.4, cited from earlier work
[6] = 22° C., cited from earlier work
[7] = 22° C., cited from earlier work; remark: listed apart in the source
not told = settings: 22 °C; cited from earlier work
[8] = 37° C., 80% human plasma, cited from earlier work
[9] = Buur et al (1986), compound 11 from Buur et al (1987)
[10] = J. Pharm. Sci. 75, 522, Buur et al (1986), compound 11 from Int. J. Pharm. 36, 41 (1987)
[11] = Int. J. Pharm. 21, 349, Buur et al (1984)

Compound	log partition isopropyl myristate / pH 4.0 acetate buffer [1] [concentration ratio]	K, partition coefficient between IPM and pH 4.0 acetate buffer [2]	Ji, flux of 5-FU through the skin [3] [mg/cm^2 hour]	Cs, amount of 5-FU in the skin [3] [mg]	Jj, flux of theophylline through the skin after application of the prodrug/formulation (relative damage) [3] [mg/cm^2 hour]	solubility [4] [µg/mL]	CIPM, equivalent mg of 5FU/ml [4]	Half-life, Buffer [5, 9] [min]	log K, octanol/pH 4.0 acetate buffer [6, 10]	Cw, solubility at pH 4.0 acetate buffer [7, 9] [mg/ml]	log partition octanol / pH 4.0 acetate buffer (not told) [log10 concentration ratio]	Half-life, 80% Plasma [8, 9] [min]	Half-life, Buffer ([5]; Buur et al (1984)) [min]	Half-life, 80% Plasma ([8]; Buur et al (1984)) [min]	log K, octanol/pH 4.0 acetate buffer [6, 11]	Cw, solubility at pH 4.0 acetate buffer ([7]; Buur et al (1984)) [mg/ml]
CC(=O)n1cc(F)c(=O)[nH]c1=O [Compound 1]	0.185	0.185	1.213	8.85	0.296	3800 (≈ 22.1 mM)	–	–	–	–	–	–	–	–	–	–
CCC(=O)n1cc(F)c(=O)[nH]c1=O [Compound 2]	0.764	0.764	0.560	8.96	0.219	6770 (≈ 36.4 mM)	–	–	–	–	–	–	–	–	–	–
CCCC(=O)n1cc(F)c(=O)[nH]c1=O [Compound 3]	2.69	2.69	0.168	1.07	0.185	3480 (≈ 17.4 mM)	–	–	–	–	–	–	–	–	–	–
CCCCC(=O)n1cc(F)c(=O)[nH]c1=O [Compound 4]	11.3	11.3	0.133	2.08	0.144	8390 (≈ 39.2 mM)	–	–	–	–	–	–	–	–	–	–
CCCCCC(=O)n1cc(F)c(=O)[nH]c1=O [Compound 5]	42.9	42.9	–	1.42	–	25700 (≈ 113 mM)	–	–	–	–	–	–	–	–	–	–
CCCCCCCC(=O)n1cc(F)c(=O)[nH]c1=O [Compound 6]	–	–	0.078	1.58	0.129	28400 (≈ 111 mM)	14.4 equivalent mg of 5FU/ml	–	–	–	–	–	–	–	–	–
COC(=O)n1cc(F)c(=O)[nH]c1=O [Compound 7]	0.026	0.026	0.343	1.08	0.337	400 (≈ 2.13 mM)	–	190	-0.68	23.3	-0.68	–	–	–	–	–
CCOC(=O)n1cc(F)c(=O)[nH]c1=O [Compound 8]	0.0757	0.0757	0.770	2.38	0.357	2640 (≈ 13.1 mM)	1.70 equivalent mg of 5FU/ml	550	-0.17	6.9	-0.17	2.1	–	–	–	–
CCCOC(=O)n1cc(F)c(=O)[nH]c1=O [Compound 9]	0.359	0.359	0.294	0.65	0.300	3280 (≈ 15.2 mM)	–	–	–	–	–	–	–	–	–	–
CCCCOC(=O)n1cc(F)c(=O)[nH]c1=O [Compound 10]	1.46	1.46	0.284	0.54	0.321	7770 (≈ 33.8 mM)	–	550	0.89	5.9	0.89	3.1	–	–	–	–
CCCCCCOC(=O)n1cc(F)c(=O)[nH]c1=O [Compound 11]	31.1	31.1	0.195	1.38	0.321	8700 (≈ 33.7 mM)	–	550	2.04	1.5	2.04	2.0	–	–	–	–
CCCCCCCCOC(=O)n1cc(F)c(=O)[nH]c1=O [Compound 12]	–	–	0.037	0.41	0.323	10400 (≈ 36.3 mM)	4.72 equivalent mg of 5FU/ml	–	–	–	–	–	–	–	–	–
CC(=O)n1c(=O)[nH]cc(F)c1=O [Compound 13]	0.040	0.040	0.575	1.77	0.282	74 (≈ 0.43 mM)	–	–	–	–	-0.34	–	43	4.6	-0.34	42.8
CCCC(=O)n1c(=O)[nH]cc(F)c1=O [Compound 15]	0.97	0.97	–	–	0.204	4440 (≈ 22.2 mM)	2.89 equivalent mg of 5FU/ml	–	–	–	0.67	–	58	28	0.67	–
CCCCC(=O)n1c(=O)[nH]cc(F)c1=O [Compound 16]	1.65	1.65	0.071	0.38	–	–	–	–	–	–	–	–	–	–	–	–
CC(=O)n1cc(F)c(=O)n(C(C)=O)c1=O [Compound 17]	2.93	2.93	0.291	1.24	0.282	5600 (≈ 26.1 mM)	–	–	–	–	–	–	–	–	–	–
CCC(=O)n1cc(F)c(=O)n(C(=O)CC)c1=O [Compound 18]	33.8	33.8	0.090	0.51	0.288	17400 (≈ 71.8 mM)	–	–	–	–	–	–	–	–	–	–
CCCC(=O)n1cc(F)c(=O)n(C(=O)CCC)c1=O [Compound 19]	–	–	0.127	1.54	0.190	169000 (≈ 625 mM)	81.4 equivalent mg of 5FU/ml	–	–	–	–	–	–	–	–	–
CCCCC(=O)n1cc(F)c(=O)n(C(=O)CCCC)c1=O [Compound 20]	–	–	0.124	1.14	0.156	352000 (≈ 1180 mM)	154 equivalent mg of 5FU/ml	–	–	–	–	–	–	–	–	–
